Reference: ChEMBL document CHEMBL3885881, “DrugMatrix”

Organism: Rattus norvegicus
Test: DrugMatrix - Regimen: Daily Repeat
Type: toxicity, organism-based, Sprague-Dawley
Set-up: regimen Daily Repeat, gender Male, age 6-8 weeks
Conditions: in vivo, po, route oral GAVAGE, dose level High, vehicle 100 % WATER; for BASOPHIL / EOSINOPHIL / ERYTHROCYTE COUNT / HEMATOCRIT / HEMOGLOBIN / LEUKOCYTE COUNT / LYMPHOCYTE / MEAN CORPUSCULAR HEMOGLOBIN / MEAN CORPUSCULAR HEMOGLOBIN CONCENTRATION / MEAN CORPUSCULAR VOLUME / MONOCYTE / NEUTROPHIL / PLATELET COUNT / ABSOLUTE BASOPHIL / ABSOLUTE EOSINOPHIL / ABSOLUTE LYMPHOCYTE / ABSOLUTE MONOCYTE: tissue Blood; for ALANINE AMINOTRANSFERASE / ALBUMIN / ALKALINE PHOSPHATASE / ASPARTATE AMINOTRANSFERASE / BLOOD UREA NITROGEN / CARBON DIOXIDE / CHLORIDE / CHOLESTEROL / CREATINE PHOSPHOKINASE / CREATININE / GLUCOSE / LACTATE DEHYDROGENASE / LIPASE / PHOSPHORUS / POTASSIUM / SODIUM / TOTAL BILIRUBIN / TOTAL PROTEIN / URIC ACID: tissue Plasma

## COCCc1ccc(OCC(O)CNC(C)C)cc1 (configuration not stated) [METOPROLOL]
120 mg/kg, 120 h, time 5 day
  BASOPHIL: 0.67%
  EOSINOPHIL: 4.2%
  ERYTHROCYTE COUNT: 7.04 x10E6/uL
  HEMATOCRIT: 45.37%
  HEMOGLOBIN: 14.97 G/DL
  LEUKOCYTE COUNT: 9.83 x10E3/uL
  LYMPHOCYTE: 70.57%
  MEAN CORPUSCULAR HEMOGLOBIN: 21.3 pg
  MEAN CORPUSCULAR HEMOGLOBIN CONCENTRATION: 33 G/DL
  MEAN CORPUSCULAR VOLUME: 64.57 fL
  MONOCYTE: 2.6%
  NEUTROPHIL: 21.47%
  PLATELET COUNT: 1018.67 x10E3/uL
  ALANINE AMINOTRANSFERASE: 28.67 u/L
  ALBUMIN: 3.9 G/DL
  ALKALINE PHOSPHATASE: 427.33 u/L
  ASPARTATE AMINOTRANSFERASE: 68.67 u/L
  BLOOD UREA NITROGEN: 16.33 mg/dL
  CARBON DIOXIDE: 38.33 mmol/L
  CHLORIDE: 106.67 MEQ/L
  CHOLESTEROL: 62.33 mg/dL
  CREATINE PHOSPHOKINASE: 168 u/L
  CREATININE: 0.4 mg/dL
  GLUCOSE: 168 mg/dL
  LACTATE DEHYDROGENASE: 97 u/L
  LIPASE: 14 u/L
  PHOSPHORUS: 11.37 mg/dL
  POTASSIUM: 6.67 MEQ/L
  SODIUM: 147.67 MEQ/L
  TOTAL BILIRUBIN: 0.47 mg/dL
  TOTAL PROTEIN: 6.33 G/DL
  URIC ACID: 1.27 mg/dL
120 mg/kg, […], time 14 day
  ABSOLUTE BASOPHIL: 90 cells/µL
  ABSOLUTE EOSINOPHIL: 60 cells/µL
  ABSOLUTE LYMPHOCYTE: 10900 cells/µL
  ABSOLUTE MONOCYTE: 270 cells/µL
  BASOPHIL: 0.67%
  EOSINOPHIL: 0.43%
  ERYTHROCYTE COUNT: 6.79 x10E6/uL
  HEMATOCRIT: 41.53%
  HEMOGLOBIN: 14.17 G/DL
  LEUKOCYTE COUNT: 13.77 x10E3/uL
  LYMPHOCYTE: 78.87%
  MEAN CORPUSCULAR HEMOGLOBIN: 20.87 pg
  MEAN CORPUSCULAR HEMOGLOBIN CONCENTRATION: 34.13 G/DL
  MEAN CORPUSCULAR VOLUME: 61.17 fL
  MONOCYTE: 1.33%
  NEUTROPHIL: 17.47%
  PLATELET COUNT: 1228.67 x10E3/uL
  ALANINE AMINOTRANSFERASE: 37 u/L
  ALBUMIN: 3.63 G/DL
  ALKALINE PHOSPHATASE: 379.33 u/L
  ASPARTATE AMINOTRANSFERASE: 68.67 u/L
  BLOOD UREA NITROGEN: 17.67 mg/dL
  CARBON DIOXIDE: 40.67 mmol/L
  CHLORIDE: 107.33 MEQ/L
  CHOLESTEROL: 51 mg/dL
  CREATINE PHOSPHOKINASE: 304.67 u/L
  CREATININE: 0.37 mg/dL
  GLUCOSE: 183.33 mg/dL
  LACTATE DEHYDROGENASE: 123.33 u/L
  LIPASE: 10.67 u/L
  PHOSPHORUS: 9.23 mg/dL
  POTASSIUM: 6.17 MEQ/L
  SODIUM: 144 MEQ/L
  TOTAL BILIRUBIN: 0.4 mg/dL
  TOTAL PROTEIN: 5.9 G/DL
  URIC ACID: 0.17 mg/dL
1200 mg/kg, 72 h, time 3 day
  ABSOLUTE BASOPHIL: 0 CELLS/uL
  ABSOLUTE EOSINOPHIL: 286.33 CELLS/uL
  ABSOLUTE LYMPHOCYTE: 11270.67 CELLS/uL
  ABSOLUTE MONOCYTE: 0 CELLS/uL
